Data set [1] can be described thus: In vitro cytotoxicity assay (MTT cell viability) in HepG2 cells. Format: cell-based, human. The conditions noted are these: human. The essentials: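 Using MTT conversion as the viability measure, HepG2 cells were incubated with compounds for 7 days (30 μM to 1.0 nM). Absorbance at 492 nm was normalized to vehicle and fitted to give CC50.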
The subject of data set [2] is HBV replication in HepAD38 cells. In words: Anti-HBV replication assay in HepAD38 cells (QPCR of extracellular HBV DNA). Format: cell-based, HBV (genotype D, serotype ayw). As to conditions: Hepatitis B virus, 168 h, 7 days incubation, extracellular HBV DNA by QPCR, read-out: Anti-HBV EC50. The essentials: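 Compounds (1 log10 serial dilutions, […]) were left 7 days on tetracycline-free HepAD38 cultures, a HepG2 line with tet-controlled HBV genotype D. EC50 came from 4-parameter regression of percent inhibition versus vehicle, using supernatant HBV DNA copies/mL measured by QPCR.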

As a reminder, the CC50 is the concentration giving 50% cytotoxicity. Low values mean harm at low concentration, high ones better tolerance by the cells. As a reminder, the EC50 is the concentration needed to bring the measured effect to its halfway point.

As for `O=C(NC1(CO)CC1)C(=O)c1c(Cl)c(C(=O)Nc2ccc(F)c(Cl)c2)c2n1CCCC2` [Example 501, 2-chloro-N-(3-chloro-4-fluorophenyl)-3-(2-((1-(hydroxymethyl)cyclopropyl)amino)-2-oxoacetyl)-5,6,7,8-tetrahydroindolizine--1 carboxamide], in data set [1], the CC50 at 7 days is 5 to 30 µM. For the same molecule, in data set [2], the EC50 lay in the range of 0.05 to 0.499 µM.

For `COCC(C)(C)NC(=O)C(=O)c1c(C)c(C(=O)Nc2cnc(F)c(C)c2)c(C)n1CCF` [Example 226, N-(6-fluoro-5-methylpyridin-3-yl)-1-(2-fluoroethyl)-5-(2-((1-methoxy-2-methylpropan-2-yl)amino)-2-oxoacetyl)-2,4-dimethyl-1H-pyrrole-3-carboxamide], the CC50 at 7 days in data set [1] is > 30 µM. In addition, the EC50 in data set [2] is 0.5 to 1 µM.

Molecule `CC(C)(C)NC(=O)C(=O)c1cc(C(=O)Nc2cc(F)cc(Cl)c2)c2n1CCCC2` [Example 395, 3-(2-(tert-butylamino)-2-oxoacetyl)-N-(3-chloro-5-fluorophenyl)-5,6,7,8-tetrahydroindolizine-1-carboxamide] showed a CC50 at 7 days in data set [1] of 0.5 to 4.99 µM. Besides, in data set [2], the EC50 was > 1 µM.

Turning to `Cc1c(C(=O)Nc2cccc(C(F)F)c2)c(C)n(C)c1C(=O)C(=O)N[C@]1(C)CC[C@H](O)CC1` [Example 701, N-(3-(difluoromethyl)phenyl)-5-(2-(((1s,4s)-4-hydroxy-1-methylcyclohexyl)amino)-2-oxoacetyl)-1,2,4-trimethyl-1H-pyrrole-3-carboxamide], the cytotoxic concentration (CC50) at 7 days in data set [1] is > 30 µM. For the same molecule, the EC50 in data set [2] was < 0.05 µM.

As to `Cc1cc(NC(=O)c2c(Cl)c(C(=O)C(=O)N[C@H](C)C(F)(F)F)n3c2CCC3)cnc1F` [Example 576, (R)-6-chloro-N-(6-fluoro-5-methylpyridin-3-yl)-5-(2-oxo-2-((1,1,1-trifluoropropan-2-yl)amino)acetyl)-2,3-dihydro-1H-pyrrolizine-7-carboxamide], the CC50 at 7 days in data set [1] lay in the range of 5 to 30 µM. The concentration giving a half-maximal response (EC50) in data set [2] was in the range of 0.05 to 0.499 µM.

Consider `Cc1cc(NC(=O)c2c(C)c(C(=O)C(=O)NC3(C(=O)N[C@]4(C)C[C@H](O)C4)CCOCC3)n(C)c2C)ccc1F` [Example 683, N-(4-fluoro-3-methylphenyl)-5-(2-((4-(((1s,3s)-3-hydroxy-1-methylcyclobutyl)carbamoyl)tetrahydro-2H-pyran-4-yl)amino)-2-oxoacetyl)-1,2,4-trimethyl-1H-pyrrole-3-carboxamide], for which, in data set [1], the CC50 at 7 days is > 30 µM. Besides, in data set [2], the EC50 was < 0.05 µM.

`Cc1noc([C@@H](C)NC(=O)C(=O)c2c(Cl)c(C(=O)Nc3cnc(F)c(C)c3)c3n2CCCC3)n1` [Example 522, (R)-2-chloro-N-(6-fluoro-5-methylpyridin-3-yl)-3-(2-((1-(3-methyl-1,2,4-oxadiazol-5-yl)ethyl)amino)-2-oxoacetyl)-5,6,7,8-tetrahydroindolizine-1-carboxamide]: the CC50 at 7 days in data set [1] was > 30 µM. Besides, the EC50 in data set [2] was > 1 µM.

Take `COC(=O)[C@H](NC(=O)C(=O)c1c(C)c(C(=O)Nc2ccc(F)c(C)c2)c(C)n1C)[C@H](C)O` [Example 28, methyl (2-(4-((4-fluoro-3-methylphenyl)carbamoyl)-1,3,5-trimethyl-1H-pyrrol-2-yl)-2-oxoacetyl)-D-threoninate]: the CC50 at 7 days in data set [1] is > 30 µM. Also, the EC50 in data set [2] is < 0.05 µM.

As to `Cc1c(C(=O)Nc2cccc(C(F)F)c2)c(C)n(C)c1C(=O)C(=O)N[C@]1(C)C[C@@H](O)C1` [Example 720, N-(3-(difluoromethyl)phenyl)-5-(2-(((1r,3r)-3-hydroxy-1-methylcycloutyl)amino)-2-oxoacetyl)-1,2,4-trimethyl-1H-pyrrole-3-carboxamide], the CC50 at 7 days in data set [1] was > 30 µM. The EC50 in data set [2] was < 0.05 µM.

In the case of `Cc1cc(NC(=O)c2c(C)c(C(=O)C(=O)N[C@@H](C(N)=O)[C@H](C)O)n(C)c2C)ccc1F` [Example 44, 5-(2-(((2R,3S)-1-amino-3-hydroxy-1-oxobutan-2-yl)amino)-2-oxoacetyl)-N-(4-fluoro-3-methylphenyl)-1,2,4-trimethyl-1H-pyrrole-3-carboxamide], in data set [1], the CC50 at 7 days is > 30 µM. Also, in data set [2], the EC50 is < 0.05 µM.

For the molecule `Cc1nc(C2(NC(=O)C(=O)c3c(C)c(C(=O)Nc4ccc(F)c(C)c4)c(C)n3C)CCCCC2)no1` [Example 632, N-(4-fluoro-3-methylphenyl)-1,2,4-trimethyl-5-(2-((1-(5-methyl-1,2,4-oxadiazol-3-yl)cyclohexyl)amino)-2-oxoacetyl)-1H-pyrrole-3-carboxamide], the CC50 at 7 days in data set [1] was > 30 µM. In data set [2], the EC50 is < 0.05 µM.

In data set [1], `CC(C)(CO)CNC(=O)C(=O)c1c(Cl)c(C(=O)Nc2ccc(F)c(F)c2)c2n1CCCC2` [Example 528, 2-chloro-N-(3,4-difluorophenyl)-3-(2-((3-hydroxy-2,2-dimethylpropyl)amino)-2-oxoacetyl)-5,6,7,8-tetrahydroindolizine-1-carboxamide] had a CC50 at 7 days of 0.5 to 4.99 µM. Besides, the EC50 in data set [2] fell in the range of 0.5 to 1 µM.

Consider `Cc1cc(NC(=O)c2c(C)c(C(=O)C(=O)N[C@H](C(N)=O)[C@H](C)O)n(C)c2C)ccc1F` [Example 57, 5-(2-(((2S,3S)-1-amino-3-hydroxy-1-oxobutan-2-yl)amino)-2-oxoacetyl)-N-(4-fluoro-3-methylphenyl)-1,2,4-trimethyl-1H-pyrrole-3-carboxamide], for which the CC50 at 7 days in data set [1] is > 30 µM. Also, the EC50 in data set [2] is 0.05 to 0.499 µM.

With `CNC(=O)[C@H](NC(=O)C(=O)c1c(C)c(C(=O)Nc2ccc(F)c(C)c2)c(C)n1C)[C@@H](C)O` [Example 62, N-(4-fluoro-3-methylphenyl)-5-(2-(((2R,3R)-3-hydroxy-1-(methylmaino)-1-oxobutan-2-yl)amino)-2-oxoacetyl)-1,2,4-trimethyl-1H-pyrrole-3-carboxamide], the CC50 at 7 days in data set [1] was > 30 µM. Also, the concentration for a half-maximal effect (EC50) in data set [2] is < 0.05 µM.

For the molecule `Cc1cc(NC(=O)c2c(C)c(C(=O)C(=O)N[C@H](C(=O)O)[C@@H](C)O)n(C)c2C)ccc1F` [Example 34, (2-(4-((4-fluoro-3-methylphenyl)carbamoyl)-1,3,5-trimethyl-1H-pyrrol-2-yl)-2-oxoacetyl)-L-threonine], the CC50 at 7 days in data set [1] is > 30 µM. For the same molecule, the EC50 in data set [2] was > 1 µM.

For the molecule `Cc1cc(NC(=O)c2c(C)c(C(=O)C(=O)NCCc3nnc[nH]3)n(C)c2C)ccc1F` [Example 348, 5-(2-((2-(4H-1,2,4-triazol-3-yl)ethyl)amino)-2-oxoacetyl)-N-(4-fluoro-3-methylphenyl)-1,2,4-trimethyl-1H-pyrrole-3-carboxamide], the CC50 at 7 days in data set [1] was > 30 µM. In addition, the EC50 in data set [2] is < 0.05 µM.

Regarding `Cc1cc(NC(=O)c2c(C)c(C(=O)C(=O)N[C@@H]3CC[C@@H](O)C3)n(C)c2C)ccc1F` [Example 127, N-(4-fluoro-3-methylphenyl)-5-(2-(((1R,3R)-3-hydroxycyclopentyl)amino)-2-oxoacetyl)-1,2,4-trimethyl-1H-pyrrole-3-carboxamide], the CC50 at 7 days in data set [1] is > 30 µM. The EC50 in data set [2] is < 0.05 µM.

For `Cc1cc(NC(=O)c2c(C)c(C(=O)C(=O)N[C@H](CO)[C@@H](C)O)n(CCF)c2C)ccc1F` [Example 177, 5-(2-(((2R,3R)-1,3-dihydroxybutan-2-yl)amino)-2-oxoacetyl)-N-(4-fluoro-3-methylphenyl)-1-(2-fluoroethyl)-2,4-dimethyl-1H-pyrrole-3-carboxamide], the CC50 at 7 days in data set [1] was in the range of 5 to 30 µM. The EC50 in data set [2] fell in the range of 0.05 to 0.499 µM.

With `Cc1cc(NC(=O)c2c(C)c(C(=O)C(=O)NC(CC(C)C)c3nn[nH]n3)n(C)c2C)ccc1F` (stereo not drawn) [Example 80, N-(4-fluoro-3-methylphenyl)-1,2,4-trimethyl-5-(2-((3-methyl-1-(2H-tetrazol-5-yl)butyl)amino)-2-oxoacetyl)-1H-pyrrole-3-carboxamide], the CC50 at 7 days in data set [1] is > 30 µM. Moreover, the EC50 in data set [2] is 0.05 to 0.499 µM.

For the molecule `CC[C@H](C)NC(=O)C1(NC(=O)C(=O)c2c(C)c(C(=O)Nc3ccc(F)c(C)c3)c(C)n2C)CCOCC1` [Example 682, (S)-5-(2-((4-(sec-butylcarbamoyl)tetrahydro-2H-pyran-4-yl)amino)-2-oxoacetyl)-N-(4-fluoro-3-methylphenyl)-1,2,4-trimethyl-1H-pyrrole-3-carboxamide], the 50% cytotoxic concentration (CC50) at 7 days in data set [1] was > 30 µM. Moreover, the EC50 in data set [2] is < 0.05 µM.

As for `Cc1c(C(=O)Nc2cccc(Cl)c2)c(C)n(C)c1C(=O)C(=O)NC(C)(C)CO` [Example 600, N-(3-chlorophenyl)-5-(2-((1-hydroxy-2-methylpropan-2-yl)amino)-2-oxoacetyl)-1,2,4-trimethyl-1H-pyrrole-3-carboxamide], the CC50 at 7 days in data set [1] was > 30 µM. In addition, the concentration giving a half-maximal response (EC50) in data set [2] is < 0.05 µM.

For `COc1c(C(=O)Nc2ccc(F)c(F)c2)c(C)n(C)c1C(=O)C(=O)NC1(C(F)(F)F)CC1` [Example 377, N-(3,4-difluorophenyl)-4-methoxy-1,2-dimethyl-5-(2-oxo-2-((1-(trifluoromethyl)cyclopropyl)amino)acetyl)-1H-pyrrole-3-carboxamide], the 50% cytotoxic concentration (CC50) at 7 days in data set [1] was > 30 µM. Further, the concentration giving a half-maximal response (EC50) in data set [2] is < 0.05 µM.

On to `Cc1cc(NC(=O)c2c(C)c(C(=O)C(=O)Nc3ccc(F)nc3)n(C)c2C)cnc1F` [Example 340, N-(6-fluoro-5-methylpyridin-3-yl)-5-(2-((6-fluoropyridin-3-yl)amino)-2-oxoacetyl)-1,2,4-trimethyl-1H-pyrrole-3-carboxamide], for which the CC50 at 7 days in data set [1] is > 30 µM. Moreover, the EC50 in data set [2] lay in the range of 0.5 to 1 µM.

Consider `Cc1cc(Cl)cc(NC(=O)c2c(C)c(C(=O)C(=O)N[C@H]3CC[C@@H](O)CC3)n(C)c2C)c1` [Example 685, N-(3-chloro-5-methylphenyl)-5-(2-(((1s,4s)-4-hydroxycyclohexyl)amino)-2-oxoacetyl)-1,2,4-trimethyl-1H-pyrrole-3-carboxamide], for which the CC50 at 7 days in data set [1] was > 30 µM. Also, the EC50 in data set [2] is < 0.05 µM.

The values are drawn from patent US20190375708A1 (VenatoRx Pharmaceuticals, Inc., priority 2018, published 2019).
